The record followed here is ChEMBL document CHEMBL1955835, “Effects of the indolocarbazole 3744W on the tyrosine kinase activity of the cytoplasmic domain of the platelet-derived growth factor beta-receptor” (Cell Signal, 1999).

Molecules are shown by their SMILES. Calls of active or inactive are those of the source. No cut-off for these calls is given here.

As usually defined, the IC50 is the concentration at which inhibition is half-maximal.

Assay [1] in a line: Inhibition of PDGF-dependent PDGFR autophosphorylation in rat A10 cells. In kind it is cell-based.
Assay [2] can be described thus: Inhibition of PDGF-dependent PDGFR-mediated cell proliferation in rat A10 cells. The assay is classed as cell-based.
Assay [3] concerns the target T1, Platelet-derived growth factor receptor beta (Homo sapiens, UniProt P09619). Briefly: Inhibition of recombinant cytoplasmic domain of PDGFRbeta autophosphorylation expressed in baculovirus infected Sf21 insect cells using [gamma-33P]ATP by SDS-PAGE based scintillation counting.
Assay [4] deals with T1, Platelet-derived growth factor receptor beta. Put plainly: Inhibition of recombinant cytoplasmic domain of PDGFRbeta expressed in baculovirus infected Sf21 insect cells using poly(Glu4,Tyr1) and [gamma-33P]ATP at 100 uM by SDS-PAGE based scintillation counting.
Assay [5] shares this target. Put plainly: Inhibition of recombinant cytoplasmic domain of PDGFRbeta expressed in baculovirus infected Sf21 insect cells using 10 fold less poly(Glu4,Tyr1) and [gamma-33P]ATP at 100 uM by SDS-PAGE based scintillation counting.
For assay [6] the target is unchanged. Put plainly: Inhibition of recombinant cytoplasmic domain of PDGFRbeta expressed in baculovirus infected Sf21 insect cells assessed as tyrosine phosphorylation treated 30 hrs after infection measured after 48 hrs of post infection by Western blotting.

T1 sequence (P09619 whole entry, the tested form may be a part): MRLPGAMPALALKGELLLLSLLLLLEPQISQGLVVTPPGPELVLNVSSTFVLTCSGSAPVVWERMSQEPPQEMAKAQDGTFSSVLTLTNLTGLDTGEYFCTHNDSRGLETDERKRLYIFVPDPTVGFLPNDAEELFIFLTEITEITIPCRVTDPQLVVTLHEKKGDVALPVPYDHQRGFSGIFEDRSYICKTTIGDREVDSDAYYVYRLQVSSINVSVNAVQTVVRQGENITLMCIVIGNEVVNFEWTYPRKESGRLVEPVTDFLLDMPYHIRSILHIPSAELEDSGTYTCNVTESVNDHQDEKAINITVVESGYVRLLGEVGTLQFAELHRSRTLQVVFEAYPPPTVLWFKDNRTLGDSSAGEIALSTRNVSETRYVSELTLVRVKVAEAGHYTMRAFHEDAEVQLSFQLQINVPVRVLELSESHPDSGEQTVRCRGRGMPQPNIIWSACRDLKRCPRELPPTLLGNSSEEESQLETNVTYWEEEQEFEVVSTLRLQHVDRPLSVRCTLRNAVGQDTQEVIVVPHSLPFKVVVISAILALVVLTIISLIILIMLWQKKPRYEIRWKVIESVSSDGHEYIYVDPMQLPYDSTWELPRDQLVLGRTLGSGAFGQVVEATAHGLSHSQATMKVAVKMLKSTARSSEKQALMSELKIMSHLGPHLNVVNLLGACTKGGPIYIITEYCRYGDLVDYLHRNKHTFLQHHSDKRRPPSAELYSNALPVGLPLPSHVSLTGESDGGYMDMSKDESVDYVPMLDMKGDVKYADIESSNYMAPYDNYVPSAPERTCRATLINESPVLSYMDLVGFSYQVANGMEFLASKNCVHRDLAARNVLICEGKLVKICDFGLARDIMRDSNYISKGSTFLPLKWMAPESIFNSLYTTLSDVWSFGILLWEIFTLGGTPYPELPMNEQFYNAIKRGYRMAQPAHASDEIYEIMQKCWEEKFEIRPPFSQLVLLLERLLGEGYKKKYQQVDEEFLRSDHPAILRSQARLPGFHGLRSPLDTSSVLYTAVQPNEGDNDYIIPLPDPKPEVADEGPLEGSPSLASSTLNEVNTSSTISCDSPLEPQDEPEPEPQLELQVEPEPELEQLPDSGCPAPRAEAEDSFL

For the compound `COc1ccc2[nH]c3c4[nH]c5ccc(OC)cc5c4c4c(c3c2c1)C(=O)NC4=O` [GW296115X], the IC50 in assay [1] was determined as 15 nM; in assay [2], 10 nM; in assay [3] it was 1800 nM; in assay [6], 2000 nM. The inhibition entry in assay [3] and in assay [6] was “Dose-dependent effect” throughout. For the same compound, the inhibition result in assay [4] and in assay [5] was “inactive” each time.
